Reference: ChEMBL document CHEMBL3351292, “Structure-Based Design and Synthesis of Potent Cyclic Peptides Inhibiting the YAP-TEAD Protein-Protein Interaction” (ACS Med Chem Lett, 2014)
Where a SMILES comes first, the peptide text is derived from it.

What was measured:
[1] = molecular target: Transcriptional coactivator YAP1/Transcriptional enhancer factor TEF-1 (Homo sapiens, UniProt P28347); experiment: Inhibition of YAP/ GST-TEAD1 (unknown origin) interaction by surface plasmon resonance assay; format: protein assay
[2] = molecular target: Transcriptional coactivator YAP1/Transcriptional enhancer factor TEF-1 (Homo sapiens) (UniProt P46937+P28347); experiment: Inhibition of YAP/ GST-TEAD1 (unknown origin) interaction at 50 uM by surface plasmon resonance assay; format: protein assay
Chain of Transcriptional coactivator YAP1/Transcriptional enhancer factor TEF-1 (Homo sapiens) (P28347 whole entry, looked up): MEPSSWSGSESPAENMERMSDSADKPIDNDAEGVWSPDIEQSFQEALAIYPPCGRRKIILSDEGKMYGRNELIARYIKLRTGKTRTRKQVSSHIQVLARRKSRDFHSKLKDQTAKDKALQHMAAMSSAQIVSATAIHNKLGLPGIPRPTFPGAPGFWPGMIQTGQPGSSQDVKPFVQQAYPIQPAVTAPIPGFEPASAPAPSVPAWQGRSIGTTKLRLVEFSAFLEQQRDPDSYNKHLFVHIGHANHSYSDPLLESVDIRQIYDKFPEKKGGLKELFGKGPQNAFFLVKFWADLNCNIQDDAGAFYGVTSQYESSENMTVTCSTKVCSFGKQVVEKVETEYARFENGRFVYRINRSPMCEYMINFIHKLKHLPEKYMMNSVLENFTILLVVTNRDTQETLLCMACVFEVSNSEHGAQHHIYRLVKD
Chain of Transcriptional coactivator YAP1/Transcriptional enhancer factor TEF-1 (Homo sapiens) (P46937 whole entry, looked up): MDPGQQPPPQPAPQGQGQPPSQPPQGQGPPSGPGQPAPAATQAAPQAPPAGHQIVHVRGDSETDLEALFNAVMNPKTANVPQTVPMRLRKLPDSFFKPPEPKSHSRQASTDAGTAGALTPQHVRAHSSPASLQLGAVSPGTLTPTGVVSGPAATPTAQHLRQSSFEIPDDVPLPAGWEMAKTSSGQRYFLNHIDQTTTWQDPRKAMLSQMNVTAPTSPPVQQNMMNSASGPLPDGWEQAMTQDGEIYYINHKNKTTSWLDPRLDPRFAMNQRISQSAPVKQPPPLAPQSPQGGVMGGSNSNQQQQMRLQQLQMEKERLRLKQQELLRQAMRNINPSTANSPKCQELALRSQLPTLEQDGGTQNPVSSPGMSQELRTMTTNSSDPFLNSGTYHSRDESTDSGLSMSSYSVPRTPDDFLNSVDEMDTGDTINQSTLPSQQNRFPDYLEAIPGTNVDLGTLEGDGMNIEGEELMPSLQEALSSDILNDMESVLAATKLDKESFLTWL

Chain of Transcriptional coactivator YAP1/Transcriptional enhancer factor TEF-1 (P46937 whole entry): as the sequence (P46937 whole entry, looked up) above
Chain of Transcriptional coactivator YAP1/Transcriptional enhancer factor TEF-1 (P28347 whole entry): as the sequence (P28347 whole entry, looked up) above

Compound	IC50 [1] [nM]	inhibition [2] [%]
CSCC[C@H](NC(=O)[C@@H]1CCCN1C(=O)[C@@H](NC(C)=O)C(C)C)C(=O)N[C@H]1CCSSC[C@@H](C(=O)N[C@@H](CCCCN)C(=O)N2CCC[C@H]2C(=O)N2CCC[C@H]2C(=O)N[C@@H](CCC(=O)O)C(N)=O)NC(=O)[C@H](Cc2ccccc2)NC(=O)[C@H](CO)NC(=O)[C@H](C)NC(=O)[C@@H]2CCCN2C(=O)[C@H](CCC(C)C)NC(=O)[C@H](CCCCN)NC(=O)[C@H](CCCNC(=N)N)NC(=O)[C@H](CC(C)C)NC1=O	620	
CCCCC[C@H](NC(=O)[C@@H]1CCCN1C(=O)[C@@H](NC(C)=O)C(C)C)C(=O)N[C@H]1CCSSC[C@@H](C(=O)N[C@@H](CCCCN)C(=O)N2CCC[C@H]2C(=O)N2CCC[C@H]2C(=O)N[C@@H](CCC(=O)O)C(N)=O)NC(=O)[C@H](Cc2ccccc2)NC(=O)[C@H](CO)NC(=O)[C@H](C)NC(=O)[C@@H]2CCCN2C(=O)[C@H](CCCC)NC(=O)[C@H](CCCCN)NC(=O)[C@H](CCCNC(=N)N)NC(=O)[C@H](CC(C)C)NC1=O	41	
CSCC[C@H](NC(=O)[C@@H]1CCCN1C(=O)[C@@H](NC(=O)[C@@H](NC(=O)[C@H](CCC(N)=O)NC(=O)[C@@H]1CCCN1C(C)=O)[C@@H](C)O)C(C)C)C(=O)N[C@@H](CCCNC(=N)N)C(=O)N[C@@H](CC(C)C)C(=O)N[C@@H](CCCNC(=N)N)C(=O)N[C@@H](C)C(=O)N[C@@H](CC(C)C)C(=O)N1CCC[C@H]1C(=O)N[C@@H](CC(=O)O)C(=O)N[C@@H](CO)C(=O)N[C@@H](Cc1ccccc1)C(=O)N[C@@H](Cc1ccccc1)C(=O)N[C@@H](CCCCN)C(=O)N1CCC[C@H]1C(=O)N1CCC[C@H]1C(=O)N[C@@H](CCC(=O)O)C(N)=O (Ac-PQTVPMRLRALPDSFFKPPE-NH2)		42
CSCC[C@H](NC(=O)[C@@H]1CCCN1C(=O)[C@@H](NC(=O)[C@@H](NC(=O)[C@H](CCC(N)=O)NC(=O)[C@@H]1CCCN1C(C)=O)[C@@H](C)O)C(C)C)C(=O)N[C@@H](CCCNC(=N)N)C(=O)N[C@@H](CC(C)C)C(=O)N[C@@H](CCCNC(=N)N)C(=O)N[C@@H](CCCCN)C(=O)N[C@@H](C)C(=O)N1CCC[C@H]1C(=O)N[C@@H](CC(=O)O)C(=O)N[C@@H](CO)C(=O)N[C@@H](Cc1ccccc1)C(=O)N[C@@H](Cc1ccccc1)C(=O)N[C@@H](CCCCN)C(=O)N1CCC[C@H]1C(=O)N1CCC[C@H]1C(=O)N[C@@H](CCC(=O)O)C(N)=O (Ac-PQTVPMRLRKAPDSFFKPPE-NH2)		0
CSCC[C@H](NC(=O)[C@@H]1CCCN1C(=O)[C@@H](NC(=O)[C@@H](NC(=O)[C@H](CCC(N)=O)NC(=O)[C@@H]1CCCN1C(C)=O)[C@@H](C)O)C(C)C)C(=O)N[C@@H](CCCNC(=N)N)C(=O)N[C@@H](CC(C)C)C(=O)N[C@@H](CCCNC(=N)N)C(=O)N[C@@H](CCCCN)C(=O)N[C@@H](CC(C)C)C(=O)N[C@@H](C)C(=O)N[C@@H](CC(=O)O)C(=O)N[C@@H](CO)C(=O)N[C@@H](Cc1ccccc1)C(=O)N[C@@H](Cc1ccccc1)C(=O)N[C@@H](CCCCN)C(=O)N1CCC[C@H]1C(=O)N1CCC[C@H]1C(=O)N[C@@H](CCC(=O)O)C(N)=O (Ac-PQTVPMRLRKLADSFFKPPE-NH2)		0
CSCC[C@H](NC(=O)[C@@H]1CCCN1C(=O)[C@@H](NC(=O)[C@@H](NC(=O)[C@H](CCC(N)=O)NC(=O)[C@@H]1CCCN1C(C)=O)[C@@H](C)O)C(C)C)C(=O)N[C@@H](CCCNC(=N)N)C(=O)N[C@@H](CC(C)C)C(=O)N[C@@H](CCCNC(=N)N)C(=O)N[C@@H](CCCCN)C(=O)N[C@@H](CC(C)C)C(=O)N1CCC[C@H]1C(=O)N[C@@H](CC(=O)O)C(=O)N[C@@H](C)C(=O)N[C@@H](Cc1ccccc1)C(=O)N[C@@H](Cc1ccccc1)C(=O)N[C@@H](CCCCN)C(=O)N1CCC[C@H]1C(=O)N1CCC[C@H]1C(=O)N[C@@H](CCC(=O)O)C(N)=O (Ac-PQTVPMRLRKLPDAFFKPPE-NH2)		1.6
CSCC[C@H](NC(=O)[C@@H]1CCCN1C(=O)[C@@H](NC(=O)[C@@H](NC(=O)[C@H](CCC(N)=O)NC(=O)[C@@H]1CCCN1C(C)=O)[C@@H](C)O)C(C)C)C(=O)N[C@@H](CCCNC(=N)N)C(=O)N[C@@H](CC(C)C)C(=O)N[C@@H](CCCNC(=N)N)C(=O)N[C@@H](CCCCN)C(=O)N[C@@H](CC(C)C)C(=O)N1CCC[C@H]1C(=O)N[C@@H](CC(=O)O)C(=O)N[C@@H](CO)C(=O)N[C@@H](C)C(=O)N[C@@H](Cc1ccccc1)C(=O)N[C@@H](CCCCN)C(=O)N1CCC[C@H]1C(=O)N1CCC[C@H]1C(=O)N[C@@H](CCC(=O)O)C(N)=O (Ac-PQTVPMRLRKLPDSAFKPPE-NH2)		4
CSCC[C@H](NC(=O)[C@@H]1CCCN1C(=O)[C@@H](NC(=O)[C@@H](NC(=O)[C@H](CCC(N)=O)NC(=O)[C@@H]1CCCN1C(C)=O)[C@@H](C)O)C(C)C)C(=O)N[C@@H](CCCNC(=N)N)C(=O)N[C@@H](CC(C)C)C(=O)N[C@@H](CCCNC(=N)N)C(=O)N[C@@H](CCCCN)C(=O)N[C@@H](CC(C)C)C(=O)N1CCC[C@H]1C(=O)N[C@@H](CC(=O)O)C(=O)N[C@@H](CO)C(=O)N[C@@H](Cc1ccccc1)C(N)=O (Ac-PQTVPMRLRKLPDSF-NH2)		5.4
CSCC[C@H](NC(=O)[C@@H]1CCCN1C(=O)[C@@H](NC(=O)[C@@H](NC(=O)[C@H](CCC(N)=O)NC(=O)[C@@H]1CCCN1C(C)=O)[C@@H](C)O)C(C)C)C(=O)N[C@@H](CCCNC(=N)N)C(=O)N[C@@H](CC(C)C)C(=O)N[C@@H](CCCNC(=N)N)C(=O)N[C@@H](CCCCN)C(=O)N[C@@H](CC(C)C)C(=O)N1CCC[C@H]1C(=O)N[C@@H](CC(=O)O)C(=O)N[C@@H](CO)C(=O)N[C@@H](Cc1ccccc1)C(=O)N[C@@H](C)C(=O)N[C@@H](CCCCN)C(=O)N1CCC[C@H]1C(=O)N1CCC[C@H]1C(=O)N[C@@H](CCC(=O)O)C(N)=O (Ac-PQTVPMRLRKLPDSFAKPPE-NH2)		9.4
CSCC[C@H](NC(=O)[C@@H]1CCCN1C(=O)[C@@H](NC(=O)[C@@H](NC(=O)[C@H](CCC(N)=O)NC(=O)[C@@H]1CCCN1C(C)=O)[C@@H](C)O)C(C)C)C(=O)N[C@@H](CCCNC(=N)N)C(=O)N[C@@H](CC(C)C)C(=O)N[C@@H](CCCNC(=N)N)C(=O)N[C@@H](CCCCN)C(=O)N[C@@H](CC(C)C)C(=O)N1CCC[C@H]1C(=O)N[C@@H](CC(=O)O)C(=O)N[C@@H](CO)C(=O)N[C@@H](Cc1ccccc1)C(=O)N[C@@H](Cc1ccccc1)C(N)=O (Ac-PQTVPMRLRKLPDSFF-NH2)		13
CSCC[C@H](NC(=O)[C@@H]1CCCN1C(=O)[C@@H](NC(=O)[C@@H](NC(=O)[C@H](CCC(N)=O)NC(=O)[C@@H]1CCCN1C(C)=O)[C@@H](C)O)C(C)C)C(=O)N[C@@H](CCCNC(=N)N)C(=O)N[C@@H](CC(C)C)C(=O)N[C@@H](CCCNC(=N)N)C(=O)N[C@@H](CCCCN)C(=O)N[C@@H](CC(C)C)C(=O)N1CCC[C@H]1C(=O)N[C@@H](CC(=O)O)C(=O)N[C@@H](CO)C(=O)N[C@@H](Cc1ccccc1)C(=O)N[C@@H](Cc1ccccc1)C(=O)N[C@@H](C)C(=O)N1CCC[C@H]1C(=O)N1CCC[C@H]1C(=O)N[C@@H](CCC(=O)O)C(N)=O (Ac-PQTVPMRLRKLPDSFFAPPE-NH2)		42
CSCC[C@H](NC(=O)[C@@H]1CCCN1C(=O)[C@@H](NC(=O)[C@@H](NC(=O)[C@H](CCC(N)=O)NC(=O)[C@@H]1CCCN1C(C)=O)[C@@H](C)O)C(C)C)C(=O)N[C@@H](CCCNC(=N)N)C(=O)N[C@@H](CC(C)C)C(=O)N[C@@H](CCCNC(=N)N)C(=O)N[C@@H](CCCCN)C(=O)N[C@@H](CC(C)C)C(=O)N1CCC[C@H]1C(=O)N[C@@H](CC(=O)O)C(=O)N[C@@H](CO)C(=O)N[C@@H](Cc1ccccc1)C(=O)N[C@@H](Cc1ccccc1)C(=O)N[C@@H](CCCCN)C(N)=O (Ac-PQTVPMRLRKLPDSFFK-NH2)		14
CSCC[C@H](NC(=O)[C@@H]1CCCN1C(=O)[C@@H](NC(=O)[C@@H](NC(=O)[C@H](CCC(N)=O)NC(=O)[C@@H]1CCCN1C(C)=O)[C@@H](C)O)C(C)C)C(=O)N[C@@H](CCCNC(=N)N)C(=O)N[C@@H](CC(C)C)C(=O)N[C@@H](CCCNC(=N)N)C(=O)N[C@@H](CCCCN)C(=O)N[C@@H](CC(C)C)C(=O)N1CCC[C@H]1C(=O)N[C@@H](CC(=O)O)C(=O)N[C@@H](CO)C(=O)N[C@@H](Cc1ccccc1)C(=O)N[C@@H](Cc1ccccc1)C(=O)N[C@@H](CCCCN)C(=O)N[C@@H](C)C(=O)N1CCC[C@H]1C(=O)N[C@@H](CCC(=O)O)C(N)=O (Ac-PQTVPMRLRKLPDSFFKAPE-NH2)		47
CSCC[C@H](NC(=O)[C@@H]1CCCN1C(=O)[C@@H](NC(=O)[C@@H](NC(=O)[C@H](CCC(N)=O)NC(=O)[C@@H]1CCCN1C(C)=O)[C@@H](C)O)C(C)C)C(=O)N[C@@H](CCCNC(=N)N)C(=O)N[C@@H](CC(C)C)C(=O)N[C@@H](CCCNC(=N)N)C(=O)N[C@@H](CCCCN)C(=O)N[C@@H](CC(C)C)C(=O)N1CCC[C@H]1C(=O)N[C@@H](CC(=O)O)C(=O)N[C@@H](CO)C(=O)N[C@@H](Cc1ccccc1)C(=O)N[C@@H](Cc1ccccc1)C(=O)N[C@@H](CCCCN)C(=O)N1CCC[C@H]1C(N)=O (Ac-PQTVPMRLRKLPDSFFKP-NH2)		42
CSCC[C@H](NC(=O)[C@@H]1CCCN1C(=O)[C@@H](NC(=O)[C@@H](NC(=O)[C@H](CCC(N)=O)NC(=O)[C@@H]1CCCN1C(C)=O)[C@@H](C)O)C(C)C)C(=O)N[C@@H](CCCNC(=N)N)C(=O)N[C@@H](CC(C)C)C(=O)N[C@@H](CCCNC(=N)N)C(=O)N[C@@H](CCCCN)C(=O)N[C@@H](CC(C)C)C(=O)N1CCC[C@H]1C(=O)N[C@@H](CC(=O)O)C(=O)N[C@@H](CO)C(=O)N[C@@H](Cc1ccccc1)C(=O)N[C@@H](Cc1ccccc1)C(=O)N[C@@H](CCCCN)C(=O)N1CCC[C@H]1C(=O)N1CCC[C@H]1C(N)=O (Ac-PQTVPMRLRKLPDSFFKPP-NH2)		52
CC(=O)N[C@@H](CCCNC(=N)N)C(=O)N[C@@H](CC(C)C)C(=O)N[C@@H](CCCNC(=N)N)C(=O)N[C@@H](CCCCN)C(=O)N[C@@H](CC(C)C)C(=O)N1CCC[C@H]1C(=O)N[C@@H](CC(=O)O)C(=O)N[C@@H](CO)C(=O)N[C@@H](Cc1ccccc1)C(=O)N[C@@H](Cc1ccccc1)C(=O)N[C@@H](CCCCN)C(=O)N1CCC[C@H]1C(=O)N1CCC[C@H]1C(=O)N[C@@H](CCC(=O)O)C(N)=O (Ac-RLRKLPDSFFKPPE-NH2)		12
